In patent US20150174059A1, “ORAL CARE” (University of Pretoria, priority 2012, published 2015):
Structures can show the parent of a compound that is named as a salt. Where two headings read alike, the source gives them in different places. Marks after values point to notes of the source that are not given here. Numbered stars: 1 amine (or outer) side, 2 acyl side, 3 side chain; on linkers, the order of the positions; unused ones are H or OH. Bridge positions count the residues as written; N and C are the ends. Square brackets hold non-standard residues; d marks the D form. Peptide text beside a SMILES is read from it. I, II: the chains in the order shown. Actinocin(9to1) = Cc1c2oc3c(C)ccc(C(=O)[*:1])c3nc-2c(C(=O)[*:2])c(N)c1=O; NMeV = CN[C@H](C(=O)O)C(C)C; Sar = CNCC(=O)O

Columns and labels:
[1] = test system: Actinomyces israelii (ATCC 10049); assay: Microdilution MIC/MBC against Actinomyces israelii; format: cell-based; conditions: for MIC / MBC: ATCC10049
Description: (§1) The microorganisms used in this study included Actinomyces israelii (ATCC 10049), Prevotella intermedia (ATCC 25611), Streptococcus mutans (ATCC 25175), Candia albicans (ATCC 10231) and a strain of Candida albicans resistant to polyenes and azoles (1051604). The bacteria were grown on Casein-peptone Soymeal-peptone Agar medium (CASO) (Merck Chemicals (Pty) Ltd Wadeville, South Africa) under anaerobic conditions in an anaerobic jar with Anaerocult® A (Merck KGaA Darmstadt, Germany), at 37° C. for 72 hours. Actinomyces israelii and S. mutans had CASO agar enriched with 1% sucrose (Merck Chemicals (Pty) Ltd Wadeville, South Africa). The drug susceptible and drug resistant strains of C. albicans were grown on Sabouraud Dextrose 4% Agar (SDA) (Merck Chemicals (Pty) Ltd Wadeville, South Africa), at 37° C. for 72 hours. Sub-culturing was done every second week. Inocula were prepared by suspending bacterial test organisms in their respective broths until turbidity was compatible with McFarland Standard 1 (Merck Chemicals (Pty) Ltd Wadeville, South Africa). Yeast test organisms were suspended in sterile distilled water until turbidity was compatible with McFarland Standard 1 (McFarland, 1907).
(§2) The microdilution technique using 96-well micro-plates, as described by Eloff (1998) was used to obtain the MIC and MBC values of the crude extracts against the microorganisms under study. The extracts, dissolved in 10% dimethyl sulphoxide (DMSO) (Merck Chemicals (Pty) Ltd), were serially diluted in broth (enriched for A. israelii and S. mutans) for the bacteria and sterile water for the Candida species; in the 96-well plate adding 48 hour old microorganisms grown at 37° C. The final concentration of extracts ranged from 12.5-0.10 mg/ml and the positive control, 5% chlorhexidine gluconate (CHX) (Dental Warehouse, Sandton, South Africa), ranged from 12.5-3.8×10^−4 mg/ml. Amphotericin B (Davis Diagnostics, Gauteng) an established antifungal drug, ranging from 0.2 mg/ml to 1.5×10^−3 mg/ml, was included for the Candida assays. […] Actinomyces israelii and S. mutans were incubated at 37° C., under anaerobic conditions, for 24 hours; P. intermedia was incubated at 37° C., under anaerobic conditions, for 48 hours; and C. albicans was incubated at 37° C. with p-iodonitrotetrazolium violet (INT) (Sigma-Aldrich, South Africa) already added, under moist aerobic conditions, for 24 hours.
(§3) To indicate bacterial growth, 50 μl of (0.2 mg/ml) INT, was added to micro-plate wells and incubated at 37° C., under anaerobic conditions, for 20-60 minutes until a red colour developed. The MIC was defined as the lowest concentration that inhibited the colour change of INT. […] These suspensions were reincubated at 37° C. for 28 hours (48 hours for P. intermedia), under anaerobic conditions. The MBC was determined as the lowest concentration of extract which inhibited 100% growth of microorganisms (Cohen et al., 1998).

HEp-2 cells = assay: Cytotoxicity, XTT method, HEp-2 cells; format: cell-based; conditions: for CC50: Homo sapiens, 72 h, read-out: 50% inhibition of cell growth IC50 + S.D.
Description: (§4) Microtitre plates with Vero and HEp-2 cells (Highveld Biological, Gauteng) were used for testing the four best ethanol extracts for cytotoxicity following the method of Basson (2005). Cytotoxicity was measured by the XTT (Sodium 3′-[1-(phenyl amino-carbonyl)-3,4-tetrazolim]-bis-[4 methoxy-6-nitro]benzene sulfonic acid hydrate) method using the cell proliferation kit II (Roche Diagnostics GmbH). A hundred microliters of Vero and HEp-2 cells (1×10^5 ml) were seeded onto micro-plates and incubated for 24 hrs to allow the cells to attach to the bottom of the plate. Dilution series were made of the extracts and the various concentrations (400-3.1 μg/ml) were added to the micro-plate and incubated for 72 hours. The XTT reagents were added to a final concentration of 0.3 mg/ml and the cells were incubated for one to two hours. The positive drug controls Doxorubicin HCl (Sigma-Aldrich, South Africa) and Actinomycin D (Sigma-Aldrich, South Africa), at concentration ranges of 0.78-0.01 μg/ml, were included in the assay. After incubation the absorbance of the colour was spectrophotometrically quantified using an enzyme-linked immunosorbent assay (ELISA) plate reader (BIO-TEK Power-Wave XS, Weltevreden Park, South Africa), which measured the optical density at 490 nm with a reference wavelength of 690 nm. The assay was carried out in triplicate.

[2] = test system: Candida albicans (ATCC 10231); assay: Microdilution MIC/MBC against Candida albicans; format: cell-based
Description: as §1
The microdilution technique using 96-well micro-plates, as described by Eloff (1998) was used to obtain the MIC and MBC values of the crude extracts against the microorganisms under study. The extracts, dissolved in 10% dimethyl sulphoxide (DMSO) (Merck Chemicals (Pty) Ltd), were serially diluted in broth (enriched for A. israelii and S. mutans) for the bacteria and sterile water for the Candida species; in the 96-well plate adding 48 hour old microorganisms grown at 37° C. The final concentration of extracts ranged from 12.5-0.10 mg/ml and the positive control, 5% chlorhexidine gluconate (CHX) (Dental Warehouse, Sandton, South Africa), ranged from 12.5-3.8×10^−4 mg/ml. Amphotericin B (Davis Diagnostics, Gauteng) an established antifungal drug, ranging from 0.2 mg/ml to 1.5×10^−3 mg/ml, was included for the Candida assays. […]

[3] = test system: Candida albicans resistant to polyenes and azoles (1051604); assay: Microdilution MIC/MBC against polyene and azole resistant C. albicans; format: cell-based; conditions: Yeast
Description: as §1, §2
as §3, with “The MBC was determined as the lowest concentration of extract which inhibited 100% growth of microorganisms (Cohen et al., 1998).” left out

Cladosprium cucumerinum = conditions: Aurentiacin A isolated from Myrica serrate; cited from earlier work
Bacillus subtilis = conditions: Aurentiacin A isolated from Myrica serrate; cited from earlier work
E. coli = conditions: Aurentiacin A isolated from Myrica serrate; cited from earlier work
[4] = test system: Streptococcus mutans (ATCC 25175); assay: Microdilution MIC/MBC against Streptococcus mutans; format: cell-based; conditions: ATCC25175, Gram +ve
Description: as §1
(§5) The microdilution technique using 96-well micro-plates, as described by Eloff (1998) was used to obtain the MIC and MBC values of the crude extracts against the microorganisms under study. […]

[5] = test system: Prevotella intermedia (ATCC 25611); assay: Microdilution MIC/MBC against Prevotella intermedia; format: cell-based; conditions: ATCC25611, Gram -ve
Description: as §1, §5

in vitro = format: cell-based; conditions: African green monkey
Description: as §4

DPPH antioxidant assay = format: biochemical; conditions: single component
Description: DPPH (2,2-diphenyl-1-picrylhydrazyl hydrate) is a stable free radical with an unpaired valence electron at a nitrogen atom forming a bridge. The free radical can initiate a chain reaction which causes the removal of an electron from another molecule to complete its own orbital. This free valence electron forms the basis of the DPPH assay as samples are tested to determine the scavenging capability of this DPPH radical.
A modified antioxidant assay was used (du Toit et al., 2001). A 2% stock solution of M. piperita and M. alternifolia, a 2 mg/ml stock solution of ascorbic acid (vitamin C) (Sigma-Aldrich (Pty) Ltd, Aston Manor, South Africa) and H. natalensis, a 1 mg/ml stock solution of Quercetin, a 500 μg/ml stock solution of TEAVIGO™ and a synergistic compilation of H. natalensis (3.125 mg/ml), M. alternifolia (0.05% v/v), M. piperita (0.05% v/v) and TEAVIGO™ (2.5 mg/ml) were prepared.
In a 96 well ELISA plate, 20 μl of each sample was added to 200 μl dH2O (except for Quercetin which was added to 200 μl EtOH), serial dilutions were done. After which […] DPPH (Sigma-Aldrich (Pty) Ltd, Aston Manor, South Africa) dissolved in ethanol (40 μg/ml) were added to all wells. All samples were prepared in triplicate. […] The absorbance was measured in an ELISA plate reader at 515 nm (du Toit et al., 2001). […]

[6] = against Actinomyces israelii, read-out: MIC of the isolated compounds
[7] = against Actinomyces israelii, NA = Not active, read-out: MBC of the isolated compounds

Oc1cc(O)c2c(c1)OC(c1ccccc1)C(O)C2 (stereo not drawn) [3,5,7-trihydroxyflavan (5), 3,5,7-Trihydroxyflavan]
MIC [1, 6]: > 1000 µg/mL
MIC of the isolated compounds ([1]; against Actinomyces israelii): >1 mg/mL
CC50 (HEp-2 cells): > 200 µg/mL

Cc1c2oc3c(C)ccc(C(=O)N[C@@H]4C(=O)N[C@H](C(C)C)C(=O)N5CCC[C@H]5C(=O)N(C)CC(=O)N(C)[C@@H](C(C)C)C(=O)O[C@@H]4C)c3nc-2c(C(=O)N[C@@H]2C(=O)N[C@H](C(C)C)C(=O)N3CCC[C@H]3C(=O)N(C)CC(=O)N(C)[C@@H](C(C)C)C(=O)O[C@@H]2C)c(N)c1=O [Actinomycin D] (I: T[dV]P[Sar][NMeV] / II: T[dV]P[Sar][NMeV]; ester I:1-I:C, II:1-II:C; linker I:N-II:N via Actinocin(9to1))
50% inhibition of cell growth IC50 + S.D. (HEp-2 cells): 9.6 × 10^−3 ± 0.0003^c μg/ml
Cytotoxicity IC50, HEp-2 (HEp-2 cells; XTT, 72 hours): 8.5 ng/mL

C[C@@H]1[C@H](O)[C@@H](C)/C=C/C=C/C=C/C=C/C=C/C=C/C=C/[C@H](O[C@@H]2O[C@H](C)[C@@H](O)[C@H](N)[C@@H]2O)C[C@@H]2O[C@](O)(C[C@@H](O)C[C@@H](O)[C@H](O)CC[C@@H](O)C[C@@H](O)CC(=O)O[C@H]1C)C[C@H](O)[C@H]2C(=O)O [Amphotericin B]
MIC, C.a ([2]; Yeast): >0.2^c mg/ml
MBC, C.a (res) [3]: 0.013^c mg/ml
MIC, C.a (res) [3]: 0.013^c mg/ml

COc1c(C)c(O)cc(O)c1C(=O)/C=C/c1ccccc1 [Aurentiacin A (1), 2′-Me ether derivative of 2′,4′,6′-trihydroxy-3′-methylchalcone]
MBC [1, 7]: 62.5 µg/mL
MIC [1, 6]: 62.5 µg/mL
CC50 (HEp-2 cells): 6.36 ± 5.09 µg/mL
growth inhibition (Cladosprium cucumerinum): inhibits the growth
growth inhibition (Bacillus subtilis): inhibits the growth
growth inhibition (E. coli): inhibits the growth

[H]/N=C(\N/C(=N/[H])NCCCCCCNC(=N)NC(=N)Nc1ccc(Cl)cc1)Nc1ccc(Cl)cc1 [Chlorhexidine, chlorhexidine gluconate]
MBC ([1]; Gram +ve, Actinomyces israelii, read-out: MBC, A.i): 39 µg/mL
MIC ([1]; Gram +ve, Actinomyces israelii, read-out: MIC, A.i): 33 µg/mL
MBC [1, 7]: 24 µg/mL
MIC [1, 6]: 24 µg/mL
MBC ([1]; Actinomyces israelii, fractions of the ethanolic extract, against A. israelii, Na = Not active, read-out: Average minimum bactericidal concentration (MBC) of the fractions): 48.8 µg/mL
MIC ([1]; Actinomyces israelii, fractions of the ethanolic extract, against A. israelii, read-out: Average minimum inhibitory concentration (MIC) of the fractions): 18.3 µg/mL
MBC [4]: 415 µg/mL
MIC [4]: 61 µg/mL
MBC [5]: 1040 µg/mL
MIC [5]: 260 µg/mL
MBC ([2]; ATCC10231, Yeast): 293 µg/mL
MIC ([2]; ATCC10231, Yeast): 352 µg/mL
MBC ([3]; Candida albicans): 293 µg/mL
MIC ([3]; Candida albicans): 260 µg/mL

COc1cccc2c1C(=O)c1c(O)c3c(c(O)c1C2=O)C[C@@](O)(C(=O)CO)C[C@@H]3O[C@H]1C[C@H](N)[C@H](O)[C@H](C)O1 [Doxorubicin, Doxorubicin HCl]
IC50 at 72 h (in vitro): 0.06 µg/mL

O=c1c(O)c(-c2ccc(O)c(O)c2)oc2cc(O)cc(O)c12 [Quercetin (4), 3,3′,4′,5,7-pentahydroxyflavone]
MBC [1, 7]: 1000 µg/mL
MIC [1, 6]: 1000 µg/mL
CC50 (HEp-2 cells): 187 ± 42.6 µg/mL
IC50 ± SD, 50% of DPPH that is inhibited (DPPH antioxidant assay): 0.415 ± 0.01095 µg/mL

O=C1O[C@H]([C@@H](O)CO)C(O)=C1O [Vitamin C, ascorbic acid]
IC50 ± SD, 50% of DPPH that is inhibited (DPPH antioxidant assay): 1.98 ± 0.006 µg/mL

Cardamomin [Cardamomin (2)]
MIC of the isolated compounds ([1]; against Actinomyces israelii): >1 mg/mL
50% inhibition of cell growth IC50 + S.D. (HEp-2 cells): 52.12 ± 9.41 µg/mL
